The values that follow come from ChEMBL document CHEMBL4052780, “Novel 1,2-dihydroquinazolin-2-ones: Design, synthesis, and biological evaluation against Trypanosoma brucei” (Bioorg Med Chem Lett, 2017).

One may read the EC50 as the midpoint of the concentration-response curve. In general, logD refers to the decadic logarithm of the distribution of all forms, ionised or not, between an organic phase and buffer at a given pH. High values mean a more lipophilic compound, low ones a more hydrophilic compound.

Converted amounts (≈) assume the structure as drawn.

In series [1] the test system is Leishmania donovani. As to the kind of experiment: Antileishmanial activity against intracellular […] stage of Leishmania donovani MHOM/ET/67/HU3 infected in human THP1 cells measured after 72 hrs by luciferase reporter gene assay. It counts as functional, cell-based. The note with it: MHOM/ET/67/HU3, THP-1, 72 h. (In general: A reporter such as luciferase makes a cellular process visible.)

The subject of series [2] is Trypanosoma brucei brucei. As to the kind of experiment: Antitrypanosomal activity against bloodstream form of Trypanosoma brucei brucei Lister 427 after 72 hrs by resazurin based fluorescence assay. It counts as functional. The note with it: Lister 427, 72 h. On the technique in general: Alamar Blue is a resazurin reagent that responds to reducing activity.
Series [3] can be described thus: Kinetic aqueous solubility of the compound by CLND method. It counts as physicochemical. Particulars: read-out: Kinetic_solubility.
In series [4] the test system is L6. As to the kind of experiment: Cytotoxicity against rat L6 cells assessed as reduction in cell viability after 72 hrs by resazurin based fluorescence assay. Particulars: L6, 72 h.
A short description of series [5]: Lipophilicity, log D of the compound at pH 7.4. It counts as physicochemical. The note with it: buffer.
The subject of series [6] is THP-1. As to the kind of experiment: Cytotoxicity against human THP1 cells assessed as reduction in cell viability after 72 hrs by MTT assay. It is filed as cell-based. The note with it: THP-1, 72 h. In general terms: Tetrazolium assays rely on reduction of a dye to a coloured formazan, in cell work by metabolically active cells.
The nature of series [7]: Cytotoxicity against human MRC5 SV2 cells after 48 hrs by resazurin based fluorescence assay. It counts as cell-based. Particulars: MRC-5 SV2, 48 h.
Series [8] relates to Trypanosoma cruzi. As to the kind of experiment: Antitrypanosomal activity against Trypanosoma cruzi Tulahuen C4 amastigotes infected in rat L6 cells after 96 hrs by beta-galactosidase reporter gene assay. The note with it: Tulahuen C4, L6, 96 h. It counts as functional, cell-based.
The test system of series [9] is Trypanosoma brucei brucei. In words: Antitrypanosomal activity against bloodstream form of Trypanosoma brucei brucei Lister 427 after 70 hrs by resazurin based fluorescence assay. It is filed as functional. Particulars: Lister 427, 70 h.
The test system of series [10] is Liver. As to the kind of experiment: Intrinsic clearance in human liver microsomes. It counts as ADME, microsome.
A short description of series [11]: Intrinsic clearance in rat hepatocytes assessed per million cells. It counts as ADME, cell-based, Hepatocyte.

In the case of `O=c1nc(C2CCC2)c2cc(-c3cc[nH]n3)ccc2[nH]1`, the EC50 in series [1] is greater than 5 µM; in [2], 5.95 µM; in series [4] it was greater than 50 µM; in series [6], greater than 50 µM; in [7] it was greater than 50 µM; in series [8], 16.9 µM. In addition, the solubility kinetic in [3] is 74 µM (≈ 19.7 µg/mL). In [5], this compound yielded a logD of 2.3.

Regarding `O=c1nc(-c2ccccc2)c2cc(-c3ccncc3)ccc2[nH]1`, the EC50 was greater than 5 µM in series [1]; 1.89 µM in [2]; 0.84 µM in [9]; greater than 50 µM in [4]; greater than 50 µM in [7]; 10.9 µM in series [8].

Regarding `O=c1nc(-c2ccccc2)c2cc(-c3cc[nH]n3)ccc2[nH]1`, the CLH is 19 µL/min/mg in series [10] and less than 1 µL/min in series [11]. Also, the EC50 in series [1] was greater than 5 µM; in series [2] it was 1.04 µM; in series [4] it was greater than 50 µM; in series [6], greater than 50 µM; in series [7], greater than 50 µM; in series [8] it was 13.3 µM. Further, the solubility kinetic in series [3] is 8 µM (≈ 2.31 µg/mL). For the same compound, the logD in [5] was 2.2.

Take `N#Cc1ccc(-c2cccc3[nH]c(=O)nc(-c4ccccc4)c23)cc1`: the EC50 in series [1] is greater than 5 µM; in series [2], greater than 40 µM; in [4], greater than 50 µM; in series [6], greater than 50 µM; in series [7], greater than 50 µM; in series [8], greater than 20 µM.

In the case of `CN1CCN(c2ccc3[nH]c(=O)nc(-c4ccccc4)c3c2)CC1`, the half-maximal effective concentration (EC50) is greater than 5 µM in series [1]; greater than 40 µM in [2]; greater than 50 µM in series [4]; greater than 50 µM in series [6]; greater than 50 µM in series [7]; greater than 20 µM in [8]. In series [3], the solubility kinetic was greater than 1000 µM.

Take `Cn1cc(-c2ccc3[nH]c(=O)nc(-c4ccccc4)c3c2)cn1`: the EC50 in [1] is greater than 5 µM; in [2] it was 5.6 µM; in [4], greater than 50 µM; in [6], greater than 50 µM; in series [7], greater than 50 µM; in series [8] it was greater than 20 µM.

In the case of `O=c1nc(-c2ccccc2)c2cc(-c3cccc(N4CCOCC4)c3)ccc2[nH]1`, the EC50 in series [1] is greater than 5 µM; in series [2], 5.17 µM; in [4] it was greater than 50 µM; in [6], greater than 50 µM; in series [7], greater than 50 µM; in series [8] it was 15.1 µM.

As for `O=c1nc(C2CCCCC2)c2cc(-c3cc[nH]n3)ccc2[nH]1`, the concentration giving a half-maximal response (EC50) is greater than 5 µM in series [1]; 5.76 µM in series [2]; greater than 50 µM in [4]; greater than 50 µM in series [6]; greater than 50 µM in [7]; 20 µM in [8]. Also, the solubility kinetic in [3] is 5 µM (≈ 1.47 µg/mL).

Take `Cc1cncc(-c2ccc3[nH]c(=O)nc(-c4ccccc4)c3c2)c1`: the EC50 in [1] was greater than 5 µM; in [2], 5.24 µM; in series [4], greater than 50 µM; in series [6] it was greater than 50 µM; in [7] it was greater than 50 µM; in [8], 9.56 µM.

For the compound `O=c1nc(-c2ccccc2)c2ccc(-c3cccnc3)cc2[nH]1`, the concentration giving a half-maximal response (EC50) in series [1] is greater than 5 µM; in series [2] it was greater than 40 µM; in [4] it was 7.73 µM; in series [6], greater than 50 µM; in series [7], greater than 50 µM; in [8] it was greater than 20 µM.

In the case of `O=c1nc(-c2ccccc2)c2cc(-c3cnc4ccccc4c3)ccc2[nH]1`, the EC50 in series [1] is greater than 5 µM; in series [2] it was 1.73 µM; in series [4], greater than 16 µM; in series [6], greater than 50 µM; in series [7], greater than 50 µM; in [8], 7.19 µM.

For `O=c1nc(-c2ccccc2)c2cc(-c3ccccc3F)ccc2[nH]1`, the EC50 in series [1] was greater than 5 µM; in series [2], 3.71 µM; in series [4] it was 55.8 µM; in series [6], 50 µM; in [7] it was greater than 50 µM; in series [8], 8.63 µM.

Consider `Cc1ccc2[nH]c(=O)nc(-c3ccccc3)c2c1`, for which the EC50 in series [1] is greater than 5 µM; in series [2], greater than 40 µM; in [4], greater than 50 µM; in [6], greater than 50 µM; in [7], greater than 50 µM; in series [8], greater than 20 µM. For the same compound, the solubility kinetic in [3] worked out at 80 µM (≈ 18.9 µg/mL).

`Cc1ccccc1-c1nc(=O)[nH]c2ccc(-c3cc[nH]n3)cc12`: the EC50 in series [1] is greater than 5 µM; in series [2], 3.14 µM; in series [4], greater than 50 µM; in series [6], greater than 50 µM; in series [7], greater than 50 µM; in [8], 5.28 µM. For the same compound, the solubility kinetic in series [3] was 13 µM (≈ 3.93 µg/mL).

As to `O=c1nc(-c2ccccc2)c2cc(-c3ccccc3)ccc2[nH]1`, the EC50 is greater than 5 µM in series [1]; 4.88 µM in series [2]; greater than 50 µM in series [4]; greater than 50 µM in series [6]; greater than 50 µM in [7]; greater than 20 µM in series [8].

Take `O=c1nc(-c2ccccc2)c2cc(-c3cccnc3)ccc2[nH]1`: the EC50 in [1] was greater than 5 µM; in [2], 5.35 µM; in [4], greater than 50 µM; in series [6], greater than 50 µM; in [7], greater than 50 µM; in series [8], 15.8 µM.

For the compound `O=c1nc(-c2ccccc2)c2cc(-c3cccc(F)c3)ccc2[nH]1`, the 50% effective concentration (EC50) is greater than 5 µM in series [1]; 4.29 µM in [2]; 23 µM in series [4]; greater than 50 µM in series [6]; greater than 50 µM in series [7]; 9.48 µM in series [8].

As to `O=c1nc(-c2ccccc2)c2cc(N3CCNCC3)ccc2[nH]1`, the EC50 in series [1] was greater than 2.5 µM; in series [2] it was greater than 20 µM; in series [4] it was greater than 25 µM; in series [6] it was greater than 25 µM; in [7] it was greater than 25 µM; in series [8], greater than 10 µM. The solubility kinetic in series [3] is greater than 1000 µM.

For the compound `O=c1nc(-c2ccccc2)c2cc(N3CCOCC3)ccc2[nH]1`, the concentration for a half-maximal effect (EC50) in series [1] was greater than 5 µM; in series [2] it was 14.1 µM; in [4], greater than 50 µM; in series [6], greater than 50 µM; in series [7] it was greater than 50 µM; in series [8], greater than 20 µM. For the same compound, in [3], the solubility kinetic was found to be 324 µM (≈ 99.6 µg/mL).

In the case of `Cn1ccc(-c2cccc3[nH]c(=O)nc(-c4ccccc4)c23)n1`, the EC50 in series [1] was greater than 5 µM; in series [2], greater than 40 µM; in [4] it was greater than 50 µM; in series [6], greater than 50 µM; in series [7], greater than 50 µM; in [8], greater than 20 µM.

For the compound `CN(C)c1ccc(-c2ccc3[nH]c(=O)nc(-c4ccccc4)c3c2)cn1`, the 50% effective concentration (EC50) was greater than 5 µM in series [1]; 2.04 µM in series [2]; 50 µM in [4]; greater than 50 µM in series [6]; greater than 50 µM in [7]; 14 µM in [8].

Take `Cc1ccc(-c2ccc3[nH]c(=O)nc(-c4ccccc4)c3c2)cn1`: the EC50 in [1] is greater than 5 µM; in [2], 5.29 µM; in [4], greater than 50 µM; in series [6] it was greater than 50 µM; in series [7], greater than 50 µM; in [8], 14.8 µM.

As to `O=c1nc(-c2ccccc2)c2ccc(-c3cccc(N4CCOCC4)c3)cc2[nH]1`, the concentration for a half-maximal effect (EC50) in [1] was greater than 5 µM; in series [2], 4.87 µM; in series [4], 4.53 µM; in series [6] it was greater than 50 µM; in [7] it was greater than 50 µM; in [8] it was greater than 20 µM.

As for `O=c1nc(-c2ccccc2)c2cc(-c3ccc(F)cc3)ccc2[nH]1`, the EC50 is greater than 5 µM in [1]; 3.88 µM in [2]; 50 µM in [4]; greater than 50 µM in series [6]; greater than 50 µM in [7]; 8.73 µM in [8].

Turning to `Cc1noc(C)c1-c1ccc2[nH]c(=O)nc(-c3ccccc3)c2c1`, the concentration giving a half-maximal response (EC50) is greater than 5 µM in [1]; 2.13 µM in series [2]; greater than 50 µM in series [4]; greater than 50 µM in series [6]; greater than 50 µM in [7]; 11.9 µM in [8].
